# Experiments:
# Test in all cases: MIC by agar-dilution, standard in vitro test system
# Format in all cases: cell-based
# Conditions in all cases: IsoSensitest agar, inoculum 10^4 CFU/spot, 37° C. for 24 hours
# [1] = test system: Coagulase Negative Staphylococcus MR (methicillin resistant)
# Description: (§1) The following results were obtained on a standard in vitro test system. The activity is described in terms of the minimum inhibitory concentration (MIC) determined by the agar-dilution technique with an inoculum size of 10^4 CFU/spot.
# (§2) The organisms were tested on a standard semi-defined susceptability test medium (IsoSensitest agar), using an inoculum of 10^4 CFU/spot and an incubation temperature of 37° C. for 24 hours.
# [2] = test system: Staphylococcus aureus MRQR (methicillin resistant quinolone resistant)
# Description: as §1, §2
# MRQR=methicillin resistant quinolone resistant
# [3] = test system: Enterococcus faecalis
# Description: as §1, with “CFU/spot. The organisms were tested on a standard semi-defined susceptability test medium (IsoSensitest agar), using an inoculum of 10^4 CFU/spot and an incubation temperature of 37° C. for 24 hours.” for “CFU/spot.”
# [4] = test system: Staphylococcus aureus Oxford
# Description: as §1, with “CFU/spot. The organisms were tested on a standard semi-defined susceptability test medium (IsoSensitest agar), using an inoculum of 10^4 CFU/spot and an incubation temperature of 37° C. for 24 hours.” for “CFU/spot.”
# [5] = test system: Bacillus subtilis
# Description: as §1, with “CFU/spot. The organisms were tested on a standard semi-defined susceptability test medium (IsoSensitest agar), using an inoculum of 10^4 CFU/spot and an incubation temperature of 37° C. for 24 hours.” for “CFU/spot.”
# [6] = test system: Coagulase Negative Staphylococcus MS
# Description: as §1, with “CFU/spot. The organisms were tested on a standard semi-defined susceptability test medium (IsoSensitest agar), using an inoculum of 10^4 CFU/spot and an incubation temperature of 37° C. for 24 hours.” for “CFU/spot.”
# [7] = test system: Streptococcus pyogenes C203
# Description: as §1, with “CFU/spot. The organisms were tested on a standard semi-defined susceptability test medium (IsoSensitest agar), using an inoculum of 10^4 CFU/spot and an incubation temperature of 37° C. for 24 hours.” for “CFU/spot.”
# [8] = test system: Staphylococcus aureus Novb. Res (Novobiocin resistant)
# Description: as §1, §2
# Novb. Res=Novobiocin resistant
smiles,measurement,setting,value
"CC(=O)NC[C@H]1CN(c2ccc(-n3cnc(C(=O)Nc4nccs4)c3)c(F)c2)C(=O)O1 [Example 43, N-[(5S)-3-(3-Fluoro-4-(4-(thiazol-2-ylaminocarbonyl)imidazol-1-yl)phenyl)-2-oxooxazolidin-5-ylmethyl]acetamide]",MIC,[1],0.25 µg/mL
same,MIC,[2],1 µg/mL
same,MIC,[3],0.5 µg/mL
same,MIC,[4],0.125 µg/mL
same,MIC,[5],0.25 µg/mL
same,MIC,[6],0.06 µg/mL
same,MIC,[7],0.125 µg/mL
same,MIC,[8],0.25 µg/mL

# — patent US6495551B1, “Substituted phenyloxazolidinones and their use as antibiotics” (priority 1997, dated 2002)
